Results from patent US9249140B2, “Bicyclic heteroaromatic compounds” (MERCK PATENT GMBH, priority 2011, dated 2016).

Assays:
FAK [1] = target: T1, FAK (Homo sapiens, UniProt Q05397); assay: FAK kinase assay (autophosphorylation), 384-well flashplate; type: biochemical; details: enzymatic; 1 μM ATP; read-out: IC50 (enzymatic), FAK inhibition
T1 construct: 2 nM FAK, 400 nM biotinylated substrate
Method: The focal adhesion kinase (FAK) assay is carried out either as a 384-well flashplate assay (for example for Topcount measurements) or as a 384-well image flashplate assay (for LEADseeker measurements). […] The reaction is stopped using 25 μl of 200 mM EDTA. After 30 min at 30° C., the liquid is removed, and each well is washed three times with 100 μl of 0.9% sodium chloride solution. Non-specific reaction is determined in the presence of 1 μM EMD 1076893/0(PF-562271). The radioactivity is measured using Topcount (in the case of the use of flashplates) or using LEADseeker (in the case of the use of image flashplates).

FAK [2] = target: T1, FAK; assay: Cellular testing of FAK kinase inhibitors: autophosphorylation of FAK at tyrosine 397, Luminex-based assay in HT29 cells; type: cell-based; details: P-Y397-FAK in HT29 cells, 30 min, serum-free, read-out: IC50 (cellular), FAK inhibition
Method: For analysis of the cellular activity of FAK, the extent of autophosphorylation of FAK at tyrosine 397 is determined with the aid of a Luminex-based assay in the 96-well format. HT29 cells are sown out with 30,000 cells per well in 100 μl of medium (90% of DMEM/10% of FCS) and incubated on the following day for 30 min with a serial dilution of the test substance (7 concentrations) under serum-free conditions. The cells are subsequently lysed using 90 μl of lysis buffer (20 mM tris/HCl pH 8.0, 150 mM NaCl, 1% of NP40, 10% of glycerol, 1% of phosphatase inhibitor II, 20 mM β-glycerol phosphate, 0.1% of protease inhibitor cocktail III, 0.01% of benzonase) per well, and the lysates are separated off from insoluble cell constituents by means of centrifugation through a 96-well filter plate (0.65 μm). The lysates are incubated at 4° C. overnight with shaking with Luminex beads to which an anti-total FAK antibody is coupled. The detection is carried out on the following day by addition of a P-Y397-FAK antibody and a species-specific PE-labelled secondary antibody. P-Y397-FAK is detected by measurement in the Luminex100 instrument by determination of 100 events per cavity in a measurement time of 60 sec. […] The values of the batches treated with test substance are calculated therefrom as percent of control, and IC50 values are determined by means of Assay Explorer.

PDK1 = target: T2, PDK1 (Homo sapiens, UniProt O15530); assay: Test for the inhibition of PDK1, 384-well flashplate; type: biochemical; details: enzymatic; 4 μM ATP
T2 construct: the PDK1 sample His6-PDK1(Δ1-50)(3.4 nM)
T2 sequence (O15530 51-556): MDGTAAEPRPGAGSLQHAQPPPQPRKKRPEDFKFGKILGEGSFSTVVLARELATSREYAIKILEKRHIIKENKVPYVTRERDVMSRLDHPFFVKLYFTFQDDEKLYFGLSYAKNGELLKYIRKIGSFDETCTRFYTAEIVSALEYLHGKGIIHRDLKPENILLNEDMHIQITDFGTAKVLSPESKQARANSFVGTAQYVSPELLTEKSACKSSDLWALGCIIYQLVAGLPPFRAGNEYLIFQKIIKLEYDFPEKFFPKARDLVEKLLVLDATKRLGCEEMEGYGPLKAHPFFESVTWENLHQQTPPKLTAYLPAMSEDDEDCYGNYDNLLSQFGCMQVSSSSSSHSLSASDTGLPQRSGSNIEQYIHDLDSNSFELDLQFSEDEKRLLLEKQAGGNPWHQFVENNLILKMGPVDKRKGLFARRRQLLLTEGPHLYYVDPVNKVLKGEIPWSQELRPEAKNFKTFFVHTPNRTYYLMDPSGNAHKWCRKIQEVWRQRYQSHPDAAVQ
Method: The experimental batches are carried out in a flashplate system with 384 wells/microtitration plate.
In each case, the PDK1 sample His6-PDK1(Δ1-50)(3.4 nM) (“His6” disclosed as SEQ ID NO: 4), the PDK1 substrate biotin-bA-bA-[…] (SEQ ID NO: 1) (400 nM), 4 μM ATP (with 0.2 μCi of 33P-ATP/well) and the test substance in 50 μl of conventional experimental solution per well are incubated at 30° C. for 60 min. The test substances are employed in corresponding concentrations (if desired in a dilution series). The control is carried out without test substance. The reaction is stopped using standard methods and washed. The activity of the kinase is measured via the incorporated radioactivity in top count. In order to determine the non-specific kinase reaction (blank value), the experimental batches are carried out in the presence of 100 nM staurosporine.
The radioactivity (decompositions per minute) of the blank value (no use of test substance in the presence of staurosporine) is subtracted from all other radioactivity values. The controls (kinase activity without test substance) are set equal to 100 percent and all other radioactivity values (after subtracting the blank value) are expressed set in relation thereto (for example in % of the control).

[3] = target: T3, TANK binding kinase (TBK1) (Homo sapiens, UniProt Q9UHD2); assay: TBK1 kinase test, 384-well flashplate; type: biochemical; details: enzymatic; 10 μM ATP
T3 sequence (Q9UHD2 1-729): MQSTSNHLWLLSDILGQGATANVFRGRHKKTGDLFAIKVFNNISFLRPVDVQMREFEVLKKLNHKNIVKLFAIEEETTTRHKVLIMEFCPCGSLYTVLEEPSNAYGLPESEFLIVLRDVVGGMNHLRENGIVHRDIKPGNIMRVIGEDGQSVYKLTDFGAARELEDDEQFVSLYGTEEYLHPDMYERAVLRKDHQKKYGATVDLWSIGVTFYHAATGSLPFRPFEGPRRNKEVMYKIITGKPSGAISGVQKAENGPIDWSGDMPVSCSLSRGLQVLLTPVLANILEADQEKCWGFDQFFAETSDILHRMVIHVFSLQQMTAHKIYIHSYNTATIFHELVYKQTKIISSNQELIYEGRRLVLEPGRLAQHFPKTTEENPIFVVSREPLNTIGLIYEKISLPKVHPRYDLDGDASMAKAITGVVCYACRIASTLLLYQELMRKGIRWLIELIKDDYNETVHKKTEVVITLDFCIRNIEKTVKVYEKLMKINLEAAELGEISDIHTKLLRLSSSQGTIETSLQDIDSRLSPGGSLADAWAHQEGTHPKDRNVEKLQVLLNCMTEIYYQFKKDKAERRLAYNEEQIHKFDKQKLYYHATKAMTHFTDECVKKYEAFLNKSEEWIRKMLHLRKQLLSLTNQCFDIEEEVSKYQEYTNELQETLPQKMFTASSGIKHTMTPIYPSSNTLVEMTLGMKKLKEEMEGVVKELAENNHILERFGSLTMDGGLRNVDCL
Method: The kinase assay is performed as 384-well flashplate assay. 0.6 nM TANK binding kinase (TBK1), 800 nM biotinylated MELK-derived peptide (biotin-Ah-Ah-[…] (SEQ ID NO: 3)) and 10 μM ATP (with 0.25 μCi of 33P-ATP/well) are incubated in a total volume of 50 μl (10 mM MOPS, 10 mM magnesium acetate, 0.1 mM EGTA, 1 mM DTT, 0.02% of Brij35, 0.1% of BSA, pH 7.5) with or without test substance at 30° C. for 120 min. The reaction is stopped using 25 μl of 200 mM EDTA solution, filtered off with suction after 30 min at room temperature, and the wells are washed 3 times with 100 μl of 0.9% NaCl solution. The non-specific proportion of the kinase reaction (blank) is determined using 100 nM staurosporine. Radioactivity is measured in the Topcount. IC50 values are calculated using RS1.

IKKε = target: T4, IKKε (Homo sapiens, UniProt Q14164); assay: IKKε kinase test (IKKepsilon), 384-well flashplate; type: biochemical; details: enzymatic; 10 μM ATP; read-out: IKKe IC50 (enzymatic)
T4 construct: 1 nM IKKε, 800 nM biotinylated IκBα(19-42) peptide
T4 sequence (Q14164 1-716): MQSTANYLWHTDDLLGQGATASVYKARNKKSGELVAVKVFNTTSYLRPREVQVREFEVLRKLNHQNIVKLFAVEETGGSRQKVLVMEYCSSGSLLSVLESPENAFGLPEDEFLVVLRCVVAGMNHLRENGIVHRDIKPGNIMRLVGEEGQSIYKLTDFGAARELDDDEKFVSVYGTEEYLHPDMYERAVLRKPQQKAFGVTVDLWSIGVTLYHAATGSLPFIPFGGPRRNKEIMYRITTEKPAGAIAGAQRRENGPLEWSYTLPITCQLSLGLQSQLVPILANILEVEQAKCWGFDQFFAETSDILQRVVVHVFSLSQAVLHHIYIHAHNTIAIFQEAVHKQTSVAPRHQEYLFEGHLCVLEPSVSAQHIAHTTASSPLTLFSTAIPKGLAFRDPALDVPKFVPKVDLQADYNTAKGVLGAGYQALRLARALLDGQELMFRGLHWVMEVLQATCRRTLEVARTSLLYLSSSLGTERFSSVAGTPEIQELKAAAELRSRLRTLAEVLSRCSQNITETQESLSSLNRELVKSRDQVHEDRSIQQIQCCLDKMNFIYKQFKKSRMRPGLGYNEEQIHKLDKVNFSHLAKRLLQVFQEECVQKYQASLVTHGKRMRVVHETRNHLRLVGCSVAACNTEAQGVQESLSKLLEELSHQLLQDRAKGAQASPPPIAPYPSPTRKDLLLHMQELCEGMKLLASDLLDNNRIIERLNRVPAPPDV
Method: The kinase assay is performed as 384-well flashplate assay. 1 nM IKKε, 800 nM biotinylated IκBα(19-42) peptide (biotin-C6-C6-[…] (SEQ ID NO: 2)) and 10 μM ATP (with 0.3 μCi of 33P-ATP/well) are incubated in a total volume of 50 μl (10 mM MOPS, 10 mM magnesium acetate, 0.1 mM EGTA, 1 mM dithiothreitol, 0.02% of Brij, 0.1% of BSA, 0.1% of BioStab, pH 7.5) with or without test substance at 30° C. for 120 min. The reaction is stopped using 25 μl of 200 mM EDTA solution, filtered off with suction after 30 min at room temperature, and the wells are 25 washed 3 times with 100 μl of 0.9% NaCl solution. The non-specific proportion of the kinase reaction (blank) is determined using 3 μM EMD 1126352 (BX-795). Radioactivity is measured in the Topcount. IC50 values are calculated using RS1.

T1 sequence (Q05397 whole entry): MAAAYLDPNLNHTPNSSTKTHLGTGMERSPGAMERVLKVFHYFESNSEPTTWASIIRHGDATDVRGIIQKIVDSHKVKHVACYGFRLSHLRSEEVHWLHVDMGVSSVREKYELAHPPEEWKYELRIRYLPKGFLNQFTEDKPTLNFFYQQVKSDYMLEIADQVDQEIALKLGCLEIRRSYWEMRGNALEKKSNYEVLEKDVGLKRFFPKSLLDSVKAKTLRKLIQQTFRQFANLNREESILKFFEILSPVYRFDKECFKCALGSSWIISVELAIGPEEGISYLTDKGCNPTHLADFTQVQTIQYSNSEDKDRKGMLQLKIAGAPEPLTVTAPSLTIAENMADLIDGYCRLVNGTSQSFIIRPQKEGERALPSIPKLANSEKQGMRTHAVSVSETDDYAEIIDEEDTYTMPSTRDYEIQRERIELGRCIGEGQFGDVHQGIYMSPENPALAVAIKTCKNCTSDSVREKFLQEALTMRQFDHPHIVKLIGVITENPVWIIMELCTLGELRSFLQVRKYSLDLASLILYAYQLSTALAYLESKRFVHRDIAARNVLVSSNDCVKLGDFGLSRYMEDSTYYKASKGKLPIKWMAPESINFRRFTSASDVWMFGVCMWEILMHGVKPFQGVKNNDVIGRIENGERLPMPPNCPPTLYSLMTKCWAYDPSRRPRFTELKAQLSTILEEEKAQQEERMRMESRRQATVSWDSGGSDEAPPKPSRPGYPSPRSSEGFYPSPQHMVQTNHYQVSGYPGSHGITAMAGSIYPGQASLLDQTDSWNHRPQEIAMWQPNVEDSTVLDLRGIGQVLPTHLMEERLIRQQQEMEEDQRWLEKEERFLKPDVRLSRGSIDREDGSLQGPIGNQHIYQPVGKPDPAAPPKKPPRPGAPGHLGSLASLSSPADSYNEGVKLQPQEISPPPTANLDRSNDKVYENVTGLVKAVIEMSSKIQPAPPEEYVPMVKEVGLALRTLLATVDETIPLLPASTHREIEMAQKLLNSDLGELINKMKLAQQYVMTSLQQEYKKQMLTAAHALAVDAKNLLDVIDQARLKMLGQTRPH

SMILES | IC50 (FAK [1]) [µM] | IC50 (FAK [2]) [µM] | IC50 (PDK1) [µM] | IC50 [3] [µM] | IC50 (IKKε) [µM]
CN(c1ncccc1CNc1c(C#N)cnc2[nH]cc(Cl)c12)S(C)(=O)=O [A10, N-{3-[(3-Chloro-5-cyano-1H-pyrrolo[2,3-b]-pyridin-4-ylamino)methyl]pyridin-2-yl}-N-methylmethanesulfonamide] | 0.3 to 3 | 3 to 50 |  |  | 
Cn1cc(-c2c(C(F)(F)F)cnc3[nH]c(-c4cccc(C(=O)N5CCOCC5)c4)cc23)cn1 [A95, {3-[4-(1-Methyl-1H-pyrazol-4-yl)-5-trifluoro-methyl-1H-pyrrolo[2,3-b]pyridin-2-yl]phenyl}-morpholin-4-ylmethanone] |  |  | 0.3 to 3 | 0.3 to 3 | 3 to 50
Cn1cc(-c2c(C(F)(F)F)cnc3[nH]c(-c4ccc(C(=O)N5CCOCC5)cc4)cc23)cn1 [A96, {4-[4-(1-Methyl-1H-pyrazol-4-yl)-5-trifluoro-methyl-1H-pyrrolo[2,3-b]pyridin-2-yl]phenyl}-morpholin-4-ylmethanone] |  |  | < 0.3 | < 0.3 | 0.3 to 3

The next lines start with the values.

IC50 (FAK [1]) [µM] | IC50 (FAK [2]) [µM] | IC50 (PDK1) [µM] | IC50 [3] [µM] | IC50 (IKKε) [µM] | SMILES
 |  | 0.3 to 3 | 0.3 to 3 | 0.3 to 3 | O=c1ccc(-c2c(C(F)(F)F)cnc3[nH]c(-c4ccc(N5CCOCC5)cc4)cc23)c[nH]1 [A97, 5-[2-(4-Morpholin-4-ylphenyl)-5-trifluoromethyl-1H-pyrrolo[2,3-b]pyridin-4-yl]-1H-pyridin-2-one]
 |  |  | 0.3 to 3 |  | Nc1ccc(-c2c(C(F)(F)F)cnc3[nH]c(-c4ccc(N5CCOCC5)cc4)cc23)cc1 [A100, 4-[2-(4-Morpholin-4-ylphenyl)-5-trifluoromethyl-1H-pyrrolo[2,3-b]pyridin-4-yl]phenylamine]
